Laboratory results reported in patent US8883183B2, “Medical devices incorporating collagen inhibitors” (Wake Forest University Health Sciences, priority 2008, dated 2014).

Columns and labels:
[1] = In vitro elution of halofuginone from coated Vicryl sutures into PBS; type: physicochemical; settings: UV spectroscopy at 243 nm
Experimental: To determine halofuginone elution, an in vitro elution study was performed. The release of halofuginone from coated Vicryl sutures into phosphate buffered saline (PBS) was used to estimate kinetics of drug release in vivo. A 2.5 cm segment of HF—Br coated Vicryl was placed in 1.5 mL of PBS and incubated at 37° C. At 5, 15, 30, and 45 minutes and 1, 2, 4, 8, 24, 48, 72, and 96 hours the segment was transferred into a new 1.5 mL aliquot of PBS, and the amount of halofuginone from the previous aliquot was measured with UV spectrophotometry at 243 nm. Data from UV spectrophotometry indicated a rapid release of HF—Br into PBS in vitro (FIG. 3). It was approximated that 90% of the total drug mass was released in 30 minutes and that the drug was nearly eliminated in 2 hours.

[2] = test system: full thickness dermal incisions; assay: Rat dorsal full thickness dermal incision wound healing model; type: in vivo
Excerpt: A total of nine animals underwent surgery: three controls and six treatment animals. On each control animal four full thickness dermal incisions were made on the dorsum. The two anterior incisions were closed with uncoated 3-0 Vicryl and N-butyl-2-cyanoacrylate glue; the posterior incisions were closed with Vicryl alone. In the experimental animals four full thickness wounds were made on the dorsum; the two anterior incisions were closed uncoated Vicryl and a mixture of HF—Br and N-butyl-2-cyanoacrylate (0.5 cc of HF—Br was added to 0.5 cc of N-butyl cyanoacrylate glue) was applied topically to the closed wound. The two posterior wounds were closed with HF—Br coated 3-0 Vicryl. Two treatment animals and one control animal were then euthanized at 2, 6, and 12 weeks and soft tissue specimens were taken for analysis.
Soft tissue samples were harvested, embedded in paraffin and sectioned (5 μm). Sections were stained with Hematoxylin and Eosin (H&E) and Masson's Trichrome. Inflammation scores were recorded according to the method of Storch (Surgical Infections. 2002; 3: 89-98). The area of scar tissue deposition was approximated and calculated with light microscopy and a Zeiss™ digital image capture software system.
To evaluate levels of newly formed collagen, tissue samples were digested in 1M NaCl in 0.05M Tris. Salt soluble collagen was then bound with a Sircol™ dye detection system and content was measured with UV spectrophotometry at […]. Percent tissue masses of salt soluble collagen were higher in all week 2 samples.
Tensile strength of dermal wound tissue specimens is assessed by measuring the breaking point with a tensometer. Tissue specimens are harvested and analyzed immediately after animals are sacrificed. The specimens are attached to the tensometer and pressure is applied until the wound breaks. This breaking pressure is recorded as tensile strength.
Skin samples were harvested so that the plane of the scar would be perpendicular to the direction of force applied. Samples were frozen, re-thawed, and secured by clamps in an tensometer (Instron™ Norwood, Mass.). Force was then applied until samples broke. Ultimate tensile load, percent elongation, and stiffness were then calculated for three control and three HF—Br treated samples at 2 and 12 weeks. Averages were reported. Average stiffness, ultimate tensile load, and percent elongation for all tissue samples increased from 2 to 12 weeks (FIG. 9).

[3] = test system: alpha 1 collagen gene expression; assay: Real time qPCR of alpha 1 collagen gene expression in wound border skin; type: in vivo, rat; settings: wounds treated topically, suture only animals
Excerpt: To determine alpha 1 collagen gene expression (in suture only animals), 2 mm punch biopsies of skin were taken at the border of wounds adjacent to suture material. Samples were flash frozen, pulverized, and RNA was extracted with Trizol reagent. Real time qPCR was employed to measure gene expression using rat 1-alpha-2 collagen ampliset. Relative quantities of alpha 1 collagen gene expression were normalized with expression levels of 18S and GAPDH RNA. These values were then divided by the relative quantity of alpha 1 collagen gene expression in normal skin.

[4] = test system: paranasal sinus wounds; assay: Rat model of paranasal sinus surgery, HF-coated cellulose pack; type: in vivo; settings: topical administration
Experimental: Topical application of a halofuginone/cellulose derivative packing was tested for the prevention of scar tissue formation in the paranasal sinuses of a rat. The paired, anatomically identical paranasal sinuses of the rat allow one side to serve as a control and the other to serve as experimental. The control sinus was packed with an uncoated cellulose derivative packing material (Merocel). The other (experimental) sinus cavity was packed with a halofuginone bromide coated cellulose derivative compound packing material. A second set of animals underwent paranasal sinus surgery and no packing material of any kind was placed. Both packing preparations provide adequate homeostasis and require removal, as in the human clinical scenario. The surgical wound was closed using absorbable subcuticular sutures. Sinus surgery was performed in the rat and packs placed for 5 days. Sinus specimens were harvested and analyzed.
In vivo elution studies were performed on packs removed 5 days post-operatively, placed in 10 mL PBS for 8 hrs, and 300 uL aliquot placed in spectrophotometer (blanked with a control pack removed post-operatively).

Question: For `O=C(CC1NCCCC1O)Cn1cnc2cc(Br)c(Cl)cc2c1=O` (centres unmarked) [HF—Br, 7-bromo-6-chloro-3-[3-(3-hydroxy-2-piperidinyl)-2-oxopropyl]-4(3H)], which “release of HF—Br into PBS in vitro” value [1] is on record?
Answer: Its value is “rapid drug release”.

Question: What about the inflammation scores ([2]; H&E, weeks 2, 6 and 12, vs controls) of the same compound?
Answer: The inflammation scores was “consistently lower”.

Question: And the “cross sectional areas of collagen deposition (scar)” value ([2]; Masson's trichrome, vs controls)?
Answer: The value was “consistently smaller”.

Question: What about the “salt soluble collagen levels” value ([2]; Sircol assay, treated vs control, each time point) of the same compound?
Answer: Its value is “No significant difference”.

Question: What about the “difference in collagen staining between treated and control” value ([2]; Week 2) of the same compound?
Answer: Its value is 2.7 fold.

Question: And the wound area approximation ([2]; Week 2)?
Answer: Its wound area approximation is 322,107 μm^2.

Question: And the “gross appearance of wounds” value ([2]; later time points, vs control)?
Answer: Its value is “No significant difference in appearance”.

Question: And the “stiffness, ultimate tensile load and percent elongation (tensile strength)” value ([2]; rat, in vivo)?
Answer: The value was “No significant difference”.

Question: What about the “gross appearance of wounds (erythema and induration)” value ([2]; two weeks, vs control wounds) of the same compound?
Answer: Its value is “More erythema and induration were visible in control wounds”.

Question: And the “1-alpha-2 collagen gene expression” value [3]?
Answer: The value was “inhibited”.

Question: And the post-operative scar formation [4]?
Answer: The post-operative scar formation was “reduced post-operative scar formation”.
